# According to US20040071328A1, “Classifying cells based on information contained in cell images” (priority 2003, published 2004):
# Test system: Cell Line A549 (human lung cancer epithelial cells)
# Experiment: Cell cycle characterization of Taxol-treated A549 cells by image analysis of DAPI-stained DNA
# Assay type: cell-based
# Procedure: FIGS. 14A-14G depict the results of an experiment in which human lung cancer epithelial cells were treated with Taxol and the effect of Taxol on the cell cycle was characterized. The specific cells used in this study were from Cell Line A549 (human lung cancer epithelial cells) (ATCC:CCL-185). Two day staged cell cultures of the A549 cells were trypsinized for five minutes from T175 cm flasks. The cells were then suspended in ten milliliters of RPMI media with ten percent serum and counted using both a hemocytometer and Coulter Counter. The suspension was diluted further in media to ensure that there were 1600 cells per twenty microliters in suspension. The cells were then counted again. Thereafter, they were transferred to a Cell Stir and kept in suspension while being plated into barcoded 384 well plates using a MultiDrop at twenty microliters per well. The plates were transferred to a humidified carbon dioxide incubator to recover for twenty-four hours before the addition of Taxol or DMSO. Prior to imaging the cells were treated with DAPI to stain DNA. Cells from each well were then imaged.
# Of relevance to this example, eight wells were treated with Taxol at varying concentrations and eight other “control” wells were treated with DMSO, which is not toxic to the cells under consideration. The concentration of Taxol varied from approximately 0.09 micromolar to 200 micromolar. […] Cells in each of the eight Taxol wells were separately imaged and the total measured intensity in each cell was recorded. As discussed above, the total intensity corresponds to the amount of DNA in each cell. In the histogram, the cell count has been normalized so that the area under each curve was equal to a value of one.
# The data used to produce the histogram of FIG. 14B was taken from the same images of the eight Taxol containing wells used to produce the histogram of FIG. 14A. In this histogram, the mitotic discriminator is defined as log2(average intensity) minus log2(area).
# The five phases are G1, S, G2, m (telophase), and M (prophase, metaphase, and anaphase). […]
smiles,measurement,setting,value
CC(=O)O[C@H]1C(=O)[C@@]2(C)[C@H]([C@H](OC(=O)c3ccccc3)[C@]3(O)C[C@H](OC(=O)[C@H](O)[C@@H](NC(=O)c4ccccc4)c4ccccc4)C(C)=C1C3(C)C)[C@]1(OC(C)=O)CO[C@@H]1C[C@@H]2O [Taxol],distribution of cells based upon the amount of DNA contained in each cell (log2 total intensity histogram; G1 vs G2 peaks),"Taxol approximately 0.09 micromolar to 200 micromolar, eight wells, DAPI stain, FIG. 14A",arrests cells in the G2 phase
same,mitotic discriminator (log2(average intensity) minus log2(area)); relative incidence of mitotic vs interphase cells,"Taxol approximately 0.09 to 200 micromolar, FIG. 14B",greatly increase the relative incidence of mitotic cells
same,"number of objects divided by the average number of DMSO objects (""o"" curve; objects correspond to living cells)","Taxol approximately 0.09 to 200 micromolar, FIG. 14C",decreases with increasing concentration of Taxol
